According to ChEMBL document CHEMBL1145720, “Daleformis, a new phytoalexin from the roots fo Dalea filiciformis: an inhibitor of endothelin converting enzyme” (J Nat Prod, 1997):
Active and inactive are the calls of the source. The calls are words filed in the database; no cut-off is given here.

Assay: Inhibition of ECE

Row | IC50 [µM] | Activity | Compound
1 | 9 | – | CC1(C)C=Cc2c(ccc3c2O[C@@H](O)[C@@H]2c4ccc(O)cc4O[C@H]32)O1 [DALEFORMIS]
2 | – | inactive | CC(=O)Oc1ccc2c(c1)O[C@@H]1c3ccc4c(c3O[C@@H](OC(C)=O)[C@H]21)C=CC(C)(C)O4
